According to patent US20250179047A1, “5-[7-(3,4-DIHYDRO-1H-ISOQUINOLINE-2-CARBONYL)-1,2,3,4 TETRAHYDROISOQUINOLIN-6-YL]-1H-PYRROLE-3-CARBOXAMIDE DERIVATIVES, PHARMACEUTICAL COMPOSITIONS CONTAINING THEM AND THEIR USES AS PRO-APOPTOTIC AGENTS” (LES LABORATOIRES SERVIER, priority 2022, published 2025):
Like-named read-outs stand apart in the source and are kept apart here.

Experiments:
[1] = target: BCL2 WT (Homo sapiens (Human), UniProt P10415); test: TR-FRET competitive binding assay, BCL2 WT
Outline: (§1)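 Ki derived from IC50 (11-point dilution, 520/495 nm emission ratio) for displacing a fluorescein-labelled PUMA peptide (2 or 20 nM). Target was 0.5 nM E. coli-expressed Halo-tagged BCL2 (1-207) or BCLXL (2-196), terbium-labelled on Halo. Incubation 2 h at 23°C in pH 7.5 Hepes with 150 mM NaCl and 5% DMSO.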

[2] = target: BCL2 G101V (Homo sapiens, UniProt P10415, G101V); test: TR-FRET competitive binding assay, BCL2 G101V; settings: BCL2 G101V; Ki determined from IC50; read-out: TR_FRET EKI_Bcl2 G101V
Outline: as §1

[3] = tested on: BCL2 G101V; test: TR-FRET competitive binding assay, BCL2 G101V; design: species or system human; settings: for TR_FRET EKI G101V/WT selectivty ratio: ratio Ki BCL2 G101V / Ki BCL2 WT; for TR_FRET EKI G101V/WT selectivty: ratio of Ki BCL2 G101V to BCL2 WT
Outline: as §1

[4] = tested on: KMS-12-PE Bcl-2 G101V; test: In vitro cytotoxicity CellTiter-Glo 48 h, KMS-12-PE Bcl-2 G101V; type: cell-based; settings: for Ratio (G101V/WT): C50 KMS-12-PE Bcl-2 G101V over C50 KMS-12-PE Bcl-2 WT; for IC50: Homo sapiens, KMS-12-PE, 48 h, CellTiter-Glo, C50 = concentration needed to reach 50% of the cellular viability
Outline: (§2)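 KMS-12-PE myeloma cells were lentivirally transduced with wild-type or G101V-mutant Bcl-2 and sorted by TagRFP. They were exposed to compounds as 11-point dose responses for 48 h at 37 °C, 5% CO2. Viability was read by CellTiter-Glo ATP luminescence, and C50 was the concentration giving 50% viability.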

[5] = target: BCL2 D103Y (Homo sapiens, UniProt P10415, D103Y); test: TR-FRET competitive binding assay, BCL2 D103Y; settings: Ki determined from IC50, read-out: TR_FRET EKI_Bcl2 D103Y
Outline: as §1

[6] = target: BCLXL WT (Homo sapiens (Human), UniProt Q07817); test: TR-FRET competitive binding assay, BCLXL WT; settings: for Ki: BCLXL WT, Ki determined from IC50, read-out: TR_FRET EKI BclxL; for TR_FRET EKI BCLxL/WT selectivty ratio: ratio Ki BCLxL / Ki BCL2 WT; for TR_FRET EKI BCLxL/WT selectivty: ratio of Ki BCLxL to BCL2 WT
Outline: as §1

[7] = tested on: KMS-12-PE Bcl-2 WT; test: In vitro cytotoxicity CellTiter-Glo 48 h, KMS-12-PE Bcl-2 WT; type: cell-based; settings: Homo sapiens, KMS-12-PE, C50 = concentration needed to reach 50% of the cellular viability
Outline: as §2

[8] = Ki determined from IC50, read-out: TR_FRET EKI_Bcl2 WT
[9] = Ki determined from IC50, read-out: TR_FRET EKI_Bcl2

Sequence of BCLXL WT (Q07817 other isoform, or with tags, fused parts or gaps): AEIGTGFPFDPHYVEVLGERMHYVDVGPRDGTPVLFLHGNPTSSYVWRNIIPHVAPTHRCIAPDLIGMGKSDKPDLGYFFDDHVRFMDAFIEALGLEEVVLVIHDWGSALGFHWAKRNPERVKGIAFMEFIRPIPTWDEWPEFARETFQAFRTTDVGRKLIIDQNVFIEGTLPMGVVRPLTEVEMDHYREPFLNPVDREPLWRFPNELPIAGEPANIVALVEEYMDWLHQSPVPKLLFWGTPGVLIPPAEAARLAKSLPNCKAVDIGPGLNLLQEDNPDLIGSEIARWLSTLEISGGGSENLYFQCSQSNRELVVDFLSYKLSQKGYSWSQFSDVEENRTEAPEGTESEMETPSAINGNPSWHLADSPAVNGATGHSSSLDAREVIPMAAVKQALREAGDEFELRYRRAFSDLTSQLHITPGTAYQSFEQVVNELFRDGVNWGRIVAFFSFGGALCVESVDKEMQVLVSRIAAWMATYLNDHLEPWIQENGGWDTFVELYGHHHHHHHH

Ki [1, 8] [nM]	Ki [2] [nM]	TR_FRET EKI G101V/WT selectivty ratio [3]	Ki [5] [nM]	Ki [6] [nM]	TR_FRET EKI BCLxL/WT selectivty ratio [6]	Ki [1, 9] [nM]	TR_FRET EKI G101V/WT selectivty [3]	TR_FRET EKI BCLxL/WT selectivty [6]	Compound	Ratio (G101V/WT) [4]	IC50 [4] [µM]	IC50 [7] [µM]
0.02	0.2	7.1	0.09	1.3	61.9				Cc1c(N(C(=O)c2cc(-c3cc4c(cc3C(=O)N3Cc5ccccc5C[C@H]3CN3CCCC3)CN(C(=O)Cc3c(F)cc(OCCN5CCOCC5)cc3F)CC4)n(C)c2C)c2ccc(O)cc2)cc(C#N)n1C [Example 171, N-(5-cyano-1,2-dimethyl-pyrrol-3-yl)-5-[2-[2-[2,6-difluoro-4-(2-morpholinoethoxy)phenyl]acetyl]-7-[(3S)-3-(pyrrolidin-1-ylmethyl)-3,4-dihydro-1H-isoquinoline-2-carbonyl]-3,4-dihydro-1H-isoquinolin-6-yl]-N-(4-hydroxyphenyl)-1,2-dimethyl-pyrrole-3-carboxamide]	4.7109	0.0603	0.0128
0.11	0.5	4.4	0.39	3.2	29.1				COC[C@@H]1Cc2ccccc2CN1C(=O)c1cc2c(cc1-c1cc(C(=O)N(c3ccc(O)cc3)c3cc(C#N)n(C(F)F)c3C)c(C)n1C)CCN(C(=O)Cc1ccc(OCCN3CCOCC3)cc1)C2 [Example 172, N-[5-cyano-1-(difluoromethyl)-2-methyl-pyrrol-3-yl]-N-(4-hydroxyphenyl)-5-[7-[(3S)-3-(methoxymethyl)-3,4-dihydro-1H-isoquinoline-2-carbonyl]-2-[2-[4-(2-morpholinoethoxy)phenyl]acetyl]-3,4-dihydro-1H-isoquinolin-6-yl]-1,2-dimethyl-pyrrole-3-carboxamide]	4.6557	0.0284	0.0061
0.03	0.2	5.8	0.16	2.3	74.2				Cc1c(N(C(=O)c2cc(-c3cc4c(cc3C(=O)N3Cc5ccccc5C[C@H]3CN3CCC5(CC5)C3)CN(C(=O)Cc3ccc(OCCN5CCOCC5)cc3F)CC4)n(C)c2C)c2ccc(O)cc2)cc(C#N)n1C [Example 176, 5-[7-[(3S)-3-(5-azaspiro[2.4]heptan-5-ylmethyl)-3,4-dihydro-1H-isoquinoline-2-carbonyl]-2-[2-[2-fluoro-4-(2-morpholinoethoxy)phenyl]acetyl]-3,4-dihydro-1H-isoquinolin-6-yl]-N-(5-cyano-1,2-dimethyl-pyrrol-3-yl)-N-(4-hydroxyphenyl)-1,2-dimethyl-pyrrole-3-carboxamide]	6.4155	0.0596	0.0093
0.05	0.5	10.0	0.12	12.4	229.0				Cc1ncc(N(C(=O)c2cc(-c3cc4c(cc3C(=O)N3Cc5ccccc5C[C@H]3CN3CCCCC3)CN(C(=O)Cc3ccc(OCCN5CCOCC5)cc3F)CC4)n(C)c2C)c2ccc(O)cc2)cc1C#N [Example 177, N-(5-cyano-6-methyl-3-pyridyl)-5-[2-[2-[2-fluoro-4-(2-morpholinoethoxy)phenyl]acetyl]-7-[(3S)-3-(1-piperidylmethyl)-3,4-dihydro-1H-isoquinoline-2-carbonyl]-3,4-dihydro-1H-isoquinolin-6-yl]-N-(4-hydroxyphenyl)-1,2-dimethyl-pyrrole-3-carboxamide]	11.238	0.0581	0.0052
0.04	0.6	14.7	0.13	6.1	148.0				COc1ccc(N(C(=O)c2cc(-c3cc4c(cc3C(=O)N3Cc5ccccc5C[C@H]3CN(C)C(C)C)CN(C(=O)Cc3ccc(OCCN5CCOCC5)cc3F)CC4)n(C)c2C)c2ccc(O)cc2)cc1C#N [Example 179, N-(3-cyano-4-methoxy-phenyl)-5-[2-[2-[2-fluoro-4-(2-morpholinoethoxy)phenyl]acetyl]-7-[(3S)-3-[[isopropyl(methyl)amino]methyl]-3,4-dihydro-1H-isoquinoline-2-carbonyl]-3,4-dihydro-1H-isoquinolin-6-yl]-N-(4-hydroxyphenyl)-1,2-dimethyl-pyrrole-3-carboxamide]	9.658	0.113	0.0117
	0.067		0.066	0.9		0.014	4.8	64.3	Cc1c(N(C(=O)c2cc(-c3cc4c(cc3C(=O)N3Cc5ccccc5C[C@H]3CN)CN(C(=O)Cc3ccc(OCCN5CCOCC5)cc3F)CC4)n(C)c2C)c2ccc(O)cc2)cc(C#N)n1C [Example 230]	2.7	0.964	0.351
	0.13		0.11	0.89		0.031	4.2	28.7	Cc1c(N(C(=O)c2cc(-c3cc4c(cc3C(=O)N3Cc5ccccc5C[C@H]3C)CN(C(=O)Cc3ccc(OCCNCCF)cc3)CC4)n(C)c2C)c2ccc(O)cc2)cc(C#N)n1C [Example 235]	4.7	0.0968	0.0208
